The values that follow come from publication PMC3473359, “Formation of a heterooctameric complex between aspartate α-decarboxylase and its cognate activating factor, PanZ, is CoA-dependent” (Biochemical and Biophysical Research Communications, 2012).

Test [1] has as its target T1, PanZ (Escherichia coli, UniProt P37613).
T1 construct: His-tagged PanZ from pCA24N(-GFP)-his-panZ, expressed in E. coli delta-panD delta-panZ (DE3); Ni-NTA and Superdex 75; monomer; copurifies partly with CoA
T1 sequence (P37613 1-127): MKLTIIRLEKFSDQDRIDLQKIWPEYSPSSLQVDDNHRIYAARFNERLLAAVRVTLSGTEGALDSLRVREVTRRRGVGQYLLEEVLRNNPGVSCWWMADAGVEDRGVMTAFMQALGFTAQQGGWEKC
Description: isothermal titration calorimetry. The format is binding. From the text:
isothermal titration calorimetry on PanZ

The target of test [2] is T1, PanZ. Description: isothermal titration calorimetry. The format is binding. The following applies: pH 7.4, 25 °C; sample contains copurified CoA.

At PanZ [1], `CC(C)(COP(=O)(O)OP(=O)(O)OC[C@H]1O[C@@H](n2cnc3c(N)ncnc32)[C@H](O)[C@@H]1OP(=O)(O)O)[C@@H](O)C(=O)NCCC(=O)NCCS` [CoA] displayed a Kd of 1950 ± 160 nM.

Take `CC(=O)SCCNC(=O)CCNC(=O)[C@H](O)C(C)(C)COP(=O)(O)OP(=O)(O)OC[C@H]1O[C@@H](n2cnc3c(N)ncnc32)[C@H](O)[C@@H]1OP(=O)(O)O` [acetyl CoA]: the isothermal titration calorimetry entry at PanZ [2] is “titration of CoA and AcCoA into PanZ showed binding”.
